Test results published in US9775890B2, “Factor Xa inhibitor used with liver-derived progenitor cells” (UNIVERSITÉ CATHOLIQUE DE LOUVAIN, priority 2012, dated 2017).
Counter-ions that a name gives are not always drawn. Like-named read-outs stand apart in the source and are kept apart here.

What was measured:
[1] = system: cells with PCA; test: Analogous thromboelastometry experiments with different direct factor Xa inhibitors plus direct thrombin inhibitor; format: cell-based; conditions: present tense
Method: (§1) Measurements were performed on a ROTEM® delta analyser (Pentapharm, Munich, Germany). ROTEM® assesses the kinetics and quality of clot formation and clot lysis in real-time. The clotting time (CT) is defined as the period of time from the start of the analysis until the start of clot formation, normally until the 2 mm amplitude is reached. The clot formation time is defined as the period until the 20 mm amplitude is reached. The alpha angle is defined as the angle between the centre line and a tangent to the curve through the 2 mm amplitude point, which is the end of the CT. The maximum amplitude of the curve is defined as the maximum clot firmness. The maximum of lysis represents the maximum fibrinolysis detected during the measurement. We focused on CT.
(§2) Briefly, after a short rest period, 300 μl of whole blood was pipetted into a cup pre-warmed at 37° C. Suspended cells were subsequently added to whole blood (5×10exp5 cells if no specification). Twenty μl of trigger reagent containing tissue factor (TF) (Innovin, Siemens, Marburg, Germany. Final dilution 1:17000/0.35 pM) diluted in Owren buffer (Siemens, Marburg, Germany) was then added to the cell-blood mixture followed by the necessary addition of 20 μl of 0.2 M CaCl2. After calcium addition, measurements started automatically. The procoagulant activity (PCA) of cells was also determined without addition of Innovin.
For modulation of PCA assays, cells were suspended in albumin 5% with or without non-fractionated heparin (Heparin Leo®, Leo). […] Dose extrapolation was based on circulating blood volume according to weight (70 ml/kg).

[2] = system: hALPCs; test: Thromboelastometry (ROTEM) clotting time: modulation of procoagulant activity (PCA) of hALPCs in whole blood; format: cell-based, human; conditions: for Control of hALPCs PCA by thrombin inhibitor, increased dose (2× or 5×): FIGS. 14 and 15, dose 2× or 5×; for Clotting time (CT) of whole blood with hALPCs in presence of anticoagulant drug: ROTEM, 300 μl citrated whole blood, 5×10exp5 hALPCs, added TF, heparin 10 U/mL in cell suspension, hirudin 5.7 μg/ml
Method: as §1
as §2, with “Innovin. To ascertain the role of TF in this coagulation model, cells were pre-incubated at room temperature for 10 minutes with either 0.2 mg/mL mAb anti-human TF IgG1 (American Diagnostica) or 0.2 mg/mL mAb mouse IgG1 (clone11711.11; RnD Systems, Abingdon, United Kingdom) before extensive washing in albumin 5% and thromboelastometry assay.” for “Innovin.”
For modulation of PCA assays, cells were suspended in albumin 5% with or without non-fractionated heparin (Heparin Leo®, Leo). The following were then added to blood or plasma: rivaroxaban (Xarelto®, Bayer Schering) at a concentration of 1 μg/ml following published data (Samama et al. (2010), Thromb Haemost, 103(4):815-825), hirudin (Refludan®, Celgene Europe Limited) at a concentration of 5.7 μg/ml (clinical dose extrapolation 0.4 mg/kg), bivalirudin (Angiox®, The Medicines Company) at a concentration of 10.7 μg/ml (clinical dose extrapolation 0.75 mg/kg). Dose extrapolation was based on circulating blood volume according to weight (70 ml/kg).

[3] = system: citrated whole blood; test: Thromboelastometry (ROTEM) of control blood in absence of cells with anticoagulant drug; design: species or system human; conditions: no cells
Method: as §1
as §2, with “Innovin. […]” for “Innovin.”

[4] = system: hepatocytes; test: Thromboelastometry (ROTEM): modulation of PCA of hepatocytes in whole blood; format: cell-based, human
Method: as §1
as §2, with “Innovin. […]” for “Innovin.”

Compound | Modulation of PCA of cells by concomitant use of the direct factor Xa inhibitor with a direct thrombin inhibitor (hirudin or bivalirudin) [1] | further results
O=C([C@H](O)CS(=O)(=O)c1ccc2cc(Cl)ccc2c1)N1CCC(N2CCCNC2=O)CC1 [letaxaban] | able to modulate PCA | 
COc1ccccc1N1CCN(C(=O)CNC(=O)C(Nc2cccc(C(=N)N)c2)c2ccccc2O[C@@H]2O[C@H](CO)[C@@H](O)[C@H](O)[C@H]2O)CC1 (stereo partly shown) [MCM-09] | able to modulate PCA | 
CC(=N)N1CC[C@H](Oc2ccc([C@H](Cc3ccc4ccc(C(=N)N)cc4c3)C(=O)O)cc2)C1 [DX9065a] | able to modulate PCA | 
O=C(NC[C@H]1CN(c2ccc(N3CCOCC3=O)cc2)C(=O)O1)c1ccc(Cl)s1 [rivaroxaban, (S)-5-chloro-N-{[2-oxo-3-[4-(3-oxomorpholin-4-yl)phenyl]oxazolidin-5-yl]methyl}thiophene-2-carboxamide] |  | Modulation of hALPCs PCA (in words) ([2]; ROTEM whole blood, rivaroxaban 1 μg/ml, bivalirudin 10.7 μg/ml, heparin 10 U/mL): ineffective
O=C1CN(S(=O)(=O)/C=C/c2ccc(Cl)s2)CCN1Cc1cc2cnccc2[nH]1 [RPR-209685] | able to modulate PCA | 
COc1ccc(-n2nc(C(N)=O)c3c2C(=O)N(c2ccc(N4CCCCC4=O)cc2)CC3)cc1 [apixaban, 1-(4-methoxyphenyl)-7-oxo-6-[4-(2-oxopiperidin-1-yl)phenyl]-4,5-dihydropyrazolo[5,4-c]pyridine-3-carboxamide] | able to modulate PCA | 
COc1ccc(C(=O)Nc2cccc(O)c2NC(=O)c2ccc(N3CCCN(C)CC3)cc2)cc1 [darexaban] | able to modulate PCA | 
COc1ccc(NC(=O)c2ccc(C(=N)N(C)C)cc2)c(C(=O)Nc2ccc(Cl)cn2)c1 [betrixaban, N-(5-chloropyridin-2-yl)-2-([4-(N,N-dimethylcarbamimidoyl)benzoyl]amino)-5-methoxybenzamide] | able to modulate PCA | 
antistasin | able to modulate PCA | 
C[C@@H](C(=O)N1CCOCC1)N1CC[C@H](NS(=O)(=O)/C=C/c2ccc(Cl)s2)C1=O [GW813893] | able to modulate PCA | 
hirudin |  | Control of hALPCs PCA by thrombin inhibitor, increased dose (2× or 5×) ([2]; ROTEM whole blood): only a partial control; Clotting time (CT) of whole blood with hALPCs in presence of anticoagulant drug ([2]; bivalirudin 10.7 μg/ml): 256.3 ± 11.8 s; Coagulation of blood in absence of cells (in words) ([3]; thromboelastometry stopped after 1800 sec): no measurable coagulation was observed; Control of hepatocytes PCA (in words) [4]: controlled
CC(=N)N1CCC(c2ccc(NC(=O)CN(Cc3cccc(OCC(=O)O)c3)c3cccc(C(=N)N)c3)cc2)CC1 [KFA-144] | able to modulate PCA | 
CO[C@H]1C[C@@H](C(=O)Nc2ccc(-n3ccccc3=O)cc2F)N(C(=O)Nc2ccc(Cl)cc2)C1 [eribaxaban] | able to modulate PCA | 
CN(C)Cc1nccn1-c1ccc(NC(=O)c2cc(C(F)(F)F)nn2-c2ccc3onc(N)c3c2)c(F)c1 [razaxaban] | able to modulate PCA | 
CO[C@H]1O[C@H](COS(=O)(=O)O)[C@@H](O[C@@H]2O[C@@H](C(=O)O)[C@@H](O[C@H]3O[C@H](COS(=O)(=O)O)[C@@H](O[C@@H]4O[C@H](C(=O)O)[C@@H](O[C@H]5O[C@H](COS(=O)(=O)O)[C@@H](O)[C@H](O)[C@H]5NS(=O)(=O)O)[C@H](O)[C@H]4O)[C@H](OS(=O)(=O)O)[C@H]3NS(=O)(=O)O)[C@H](O)[C@H]2OS(=O)(=O)O)[C@H](O)[C@H]1NS(=O)(=O)O [fondaparinux, 2-deoxy-6-O-sulfo-2-(sulfoamino)-α-D-glucopyranosyl-(1→4)-O-β-D-glucopyranuronosyl-(1→4)-O-2-deoxy-3,6-di-O-sulfo-2-(sulfoamino)-α-D-glucopyranosyl-(1→4)-O-2-O-sulfo-α-L-idopyranouronosyl-(1→4)-O-methyl-2-deoxy-6-O-sulfo-2-(sulfoamino)-α-D-glucopyranoside, decasodium salt] |  | Clotting time (CT) of whole blood with hALPCs in presence of anticoagulant drug ([2]; bivalirudin 10.7 μg/ml): 209.7 ± 149.7 s
CN1CCC(N2CCN(C(=O)[C@H](NC(=O)c3ccc4cc[nH]c4c3)c3ccccc3)CC2)CC1 [LY517717] | able to modulate PCA | 
CC(=N)N1CCC(Oc2ccc(N(Cc3ccc4ccc(C(=N)N)cc4c3)S(=O)(=O)CC(=O)O)cc2)CC1 [YM-60828] | able to modulate PCA | 
N=C(N)N1CCc2ccc(OCC3(C(=O)O)CCN(c4ccncc4)CC3)cc2C1 [JTV-803] | able to modulate PCA | 
bivalirudin |  | Control of hALPCs PCA by thrombin inhibitor, increased dose (2× or 5×) ([2]; ROTEM whole blood): only a partial control; Clotting time (CT) of whole blood with hALPCs in presence of anticoagulant drug ([2]; bivalirudin 10.7 μg/ml): 380.8 ± 114.7 s; CT of control blood (in absence of cells) ([3]; bivalirudin 10.7 μg/ml, unit not printed at the place (other CT in sec)): 1075.0±107.2; Control of hepatocytes PCA (in words) ([4]; ROTEM whole blood, FIG. 6D): controlled
